pIC50: −log10 of the molar value.
Target: T1, Activin receptor type-1 (Homo sapiens, UniProt Q04771)
T1 sequence (Q04771 whole entry): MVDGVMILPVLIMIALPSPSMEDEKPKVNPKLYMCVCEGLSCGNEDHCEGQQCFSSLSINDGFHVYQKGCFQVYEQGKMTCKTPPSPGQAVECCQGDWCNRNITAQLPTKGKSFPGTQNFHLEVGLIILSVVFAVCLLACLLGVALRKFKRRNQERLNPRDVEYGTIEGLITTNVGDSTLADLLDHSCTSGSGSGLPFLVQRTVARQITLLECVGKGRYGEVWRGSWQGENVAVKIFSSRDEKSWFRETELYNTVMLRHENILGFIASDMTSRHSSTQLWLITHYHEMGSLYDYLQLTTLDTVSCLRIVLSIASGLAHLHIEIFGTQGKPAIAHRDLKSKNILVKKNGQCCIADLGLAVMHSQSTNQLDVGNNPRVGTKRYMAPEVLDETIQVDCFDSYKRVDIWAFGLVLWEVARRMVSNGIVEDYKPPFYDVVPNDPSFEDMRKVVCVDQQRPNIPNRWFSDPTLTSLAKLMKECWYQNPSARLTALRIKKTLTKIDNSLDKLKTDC
Assay: The enzymatic assays were conducted in white 384-well polystyrene plates in a final volume of 8 μL. The inhibitors were serially diluted in DMSO and added to the plate wells prior to addition of the other reaction components. […] The final concentration of DMSO in the assay was 1% and the enzyme concentration was 0.5 nM for ALK2. […] The reaction was incubated at 25° C. for 1 hr and read on a PHERAstar FS plate reader (BMG Labtech). IC50 determination was performed by fitting percent control activity versus the log of the inhibitor concentration using the IDBS XLFit and GraphPad Prism 5.0 software.

In the case of Cc1nn2c(-c3ccnc4cc(-c5ccncc5)ccc34)cnc2cc1-c1cnn(CC2CCNCC2)c1, the pIC50 was > 9.00.
